From patent US9446127B2, “Compositions including androgen receptor degradation (ARD) enhancers and methods of prophylactic or therapeutic treatment of skin disorders and hair loss” (AndroScience Corporation, priority 2007, dated 2016)
“And” between values parts separate entries of the source, which are not always exact repeats. Equal entries are not always repeated.

Legend:
[1] = target: T1, wild type androgen receptor (GFPAR) (Homo sapiens, UniProt P10275); test: Fluorescence microscopy of COS-1 cells transfected with GFPAR; format: cell-based; conditions: COS-1, 5 micromolar
T1 construct: GFP (green fluorescent protein); expressed in transfected cells; host or cells: COS-1 (monkey kidney)
T1 sequence (P10275 1-920): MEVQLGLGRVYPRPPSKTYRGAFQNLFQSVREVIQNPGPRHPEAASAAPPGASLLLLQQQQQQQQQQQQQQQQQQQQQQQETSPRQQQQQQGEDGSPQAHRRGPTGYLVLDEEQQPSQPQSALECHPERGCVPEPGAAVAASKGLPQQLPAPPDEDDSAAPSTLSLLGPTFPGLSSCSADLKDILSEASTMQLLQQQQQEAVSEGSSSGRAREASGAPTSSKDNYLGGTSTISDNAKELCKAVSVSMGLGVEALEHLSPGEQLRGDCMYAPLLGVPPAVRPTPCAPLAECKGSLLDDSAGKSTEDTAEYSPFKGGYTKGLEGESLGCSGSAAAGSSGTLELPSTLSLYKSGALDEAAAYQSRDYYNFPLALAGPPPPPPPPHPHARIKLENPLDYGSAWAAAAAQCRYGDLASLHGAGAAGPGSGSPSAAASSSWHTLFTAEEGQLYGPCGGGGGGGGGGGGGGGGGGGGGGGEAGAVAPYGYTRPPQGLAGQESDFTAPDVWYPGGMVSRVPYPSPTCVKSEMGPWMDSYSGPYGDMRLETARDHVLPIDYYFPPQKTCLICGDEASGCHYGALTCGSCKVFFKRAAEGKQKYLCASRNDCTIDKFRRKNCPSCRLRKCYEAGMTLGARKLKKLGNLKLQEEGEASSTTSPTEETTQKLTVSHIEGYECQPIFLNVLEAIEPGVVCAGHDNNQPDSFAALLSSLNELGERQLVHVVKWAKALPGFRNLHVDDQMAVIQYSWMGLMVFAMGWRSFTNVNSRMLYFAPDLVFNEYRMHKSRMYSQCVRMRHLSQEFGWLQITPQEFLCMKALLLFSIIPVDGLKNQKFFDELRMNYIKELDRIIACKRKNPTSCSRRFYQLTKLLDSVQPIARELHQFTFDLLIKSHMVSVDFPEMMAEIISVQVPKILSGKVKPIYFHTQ
Protocol: Monkey kidney COS-1 cells were plated at a density of 3×10^4 cells per 0.5-milliliter volume onto alcohol-cleaned and sterilized cover slips placed in 35-millimeter suspension culture dishes containing Dulbecco's modified Eagle's (DME) medium containing 10% FBS. The cells were transfected with plasmids containing the wild type AR (GFPAR) or poly Q49 (plasmid GFPARQ49) mutant androgen receptor and green fluorescent protein (GFP) as a reporter. For each coverslip, 12.3 microliters SuperFect was added to 3.075 micrograms plasmid in 102.5 microliters DME medium (to give a 1:4 ratio of DNA to SuperFect reagent); the mixture was vortexed briefly, and the complex allowed to form over 15 minutes. Each mixture then received 897 microliters CD/DME and was mixed gently. The resulting 1-milliliter volumes were added to the dishes containing the coverslips (final plasmid concentration was […] per dish). Cells were allowed to incubate with the transfection solution for 5 hours, then the medium was changed to fresh 1.5 milliliters CD/DME medium with either vehicle (DMSO) only added or ASC-J9 (final concentration 5 micromolar). […] The coverslips were air-dried, mounted on slides with a glycerol-based mounting agent, and stored at 4 degrees Celsius if necessary prior to observation with fluorescence microscopy. […]

LNCaP tumor = test: LNCaP xenograft tumor growth in nude mice; format: in vivo; conditions: 100 mg/kg/day ip three times per week, 7 weeks
Protocol: In the related in vivo studies, LNCaP human prostate tumor cells are xenografted into nude mice by subcutaneous injection (2×10^6 per site). Mice are subsequently treated, by intraperitoneal injection, with either the vehicle solution as control or the test compounds (ASC-J9 at a dose of 100 milligrams per kilogram body weight), three times a week for 7 weeks. Tumor volume is measured twice a week over the next 7 weeks. […] Data in FIG. 12 show two nude mice received xenografted LNCaP tumor and one treated with vehicle solution (left) and the other with ASC-J9 (right). A significant reduction in tumor size and PSA content in plasma were detected in animal received ASC-J9 treatment. Such results can be taken as a strong indication that the suppression of AR activity and the resulting reduction of tumor growth induced by AR-degrading compounds such as ASC-J9, may be translated into a practical use for treating or preventing diseases and disorders related to AR activity, such as prostate and other cancers.
Two million LNCaP tumor cells were inoculated, subcutaneously, into the left flank of nude mice. In the experimental animals, the nude mice were give an intraperitoneal (ip) injection of compound ASC-J9 at 100 mg/kg/day three times per week or with vehicle control only. After 7 weeks of treatment the tumors were excised, weighed and compared. […] In addition, PSA (prostate specific antigen) level in plasma from animal treated with ASC-J9 reduced 90% (reduce from 57.0 ng/ml to 7.6 ng/ml).

acne-affected skin = test: Topical treatment of acne in human volunteers; format: in vivo
Protocol: In this example, human subjects were successfully treated for acne by topical administration of a cream containing the compound ASC-J15 or ASC-J9, which were shown in the previous examples to ameliorate the effects of the androgen receptor-activated pathway, specifically by inducing degradation of the androgen receptor. A basic carrier formulation was prepared by mixing two solutions: (1) a water-based solution containing aristoflex avc, Osmocide, Tween 20, and water; and (2) an oil-based solution containing isopropyl myristate, coconut dienthanolamine, ethylparaben, isobutylparaben, methylparaben, and propylparaben. […]
Male and female human volunteers ranging in age from 15 years to 52 years were treated by topical application of the test compounds to the acne-affected skin. Subjects were asked to apply the cream to the acne-affected areas twice a day (once in the morning and once in the evening). […] The results are given in Table 2, and a representative result (photo pictures) from one volunteer is depicted in FIG. 14. FIG. 14A depicts the volunteer's forehead and FIG. 14B depicts the volunteer's back.

**Q.** With `COc1ccc(C=CC(=O)C=C(O)C=Cc2ccc(OC)c(OC)c2)cc1OC` [ASC-J9, 5-hydroxy-1,7-bis(3,4-dimethoxyphenyl)-1,4,6-heptatrien-3-one] as the compound, how does the “GFPAR fluorescence (expression of wild type AR)” value [1] read?
**A.** The value was “reduces (or degrades) the expression of AR”.

**Q.** What about the “reduction of PSA level in plasma” value (LNCaP tumor) of the same compound?
**A.** Its value is 90%.

**Q.** And the “reduction in tumor size” value (LNCaP tumor; vs vehicle control)?
**A.** Its value is 75%.

**Q.** And the “PSA (prostate specific antigen) level in plasma” value (LNCaP tumor; reduced from 57.0 ng/ml)?
**A.** Its value is 7.6 ng/mL.

**Q.** What about the tumor weight (LNCaP tumor; vehicle control 0.694 g) of the same compound?
**A.** The tumor weight was 0.172 g.

**Q.** What about the “Recovery Time” value (acne-affected skin; topical cream 1 micromolar, one line per subject (age, sex, frequency in Table 2)) of the same compound?
**A.** The value was 2 weeks and 1 week weeks.

**Q.** What about the “Recovery Time” value (acne-affected skin; topical cream 2.5 micromolar, twice a day, subject 24) of the same compound?
**A.** The value was 1 week.

**Q.** And the “skin condition of acne-affected male volunteers (photographs)” value (acne-affected skin; topical, 2.5 micromolar forehead (FIG. 14A), 625 μM back (FIG. 14B))?
**A.** The value was “visible improvement to skin condition”.
